From patent publication US6716824B1, “Treatment of pancreatic adenocarcinoma by cytotoxic gene therapy” (priority 1999, dated 2004)

What was measured:
F9 cells = test: Ganciclovir dose response curve, untransfected cells, MTS assay; assay type: cell-based, mouse; conditions: n=8
Experimental: (§1) Dose response curves with GCV for untransfected NIT-1 and F9 (control) cells were performed prior to cytoxicity studies with genetic constructs. NIT-1 cells were plated into a ninety-six well plate at a density of 5,000 cells per well and treated with GCV (0.1 to 2.5 μg/ml) to determine a dose response curve to GCV alone. The cells were treated daily for five days and cell viability was ascertained with an MTS assay. […] The GCV toxicity dose response curve for F9 cells resembled other cell lines (FIG. I B). […] Note that at concentrations of GCV 0.25 μg/ml and higher a significant decrease in cell survival is observed, n=8, *p<0.05, Unpaired Student t-test.

NIT-1 cells = test: as above; assay type: cell-based, mouse; conditions: untransfected NIT-1 cells
Experimental: as §1

A549 cells = test: as above; assay type: cell-based, human; conditions: five days
Experimental: (§2) PANC-1, CAPAN-1 MIA-1 and A549 cells were plated into a ninety-six well plate at a density of 5,000 cells per well and given between 0 to 500 μg/ml of GCV to determine a dose response curve to GCV alone. The cells were treated for five days and cell viability was ascertained with an MTS assay. Results were plotted on a graph as OD 490 nm vs. GCV concentration.

CAPAN-1 cells = test: as above; assay type: cell-based, human; conditions: untransfected CAPAN-1 cells
Experimental: as §2

MIA-1 cells = test: as above; assay type: cell-based, human; conditions: untransfected MIA-1 cells, five days
Experimental: as §2

PANC-1 cells = test: as above; assay type: cell-based, human; conditions: untransfected PANC-1 cells
Experimental: as §2

PANC-1 tumors = test: Treatment of human ductal pancreatic adenocarcinoma tumors in vivo, ICR/scid mice injected ip with PANC-1 cells; design: species or system mouse; conditions: PANC-1 tumors in ICR/scid mice, with GCV 40 mg/kg ip 7 days
Experimental: The effectiveness of RIPlacZ and RIP-tk gene constructs against PANC-1 was then studied in vivo using a SCID mouse model. SCID mice are immunodeficient and will not reject a human pancreatic cancer cell line. PANC-1 cells were injected intraperitoneally and tumors were visible by day 24. Once the model was established in the laboratory, the mice were treated with the gene therapy beginning at day 24 post-tumor-injection.
Six mice received seven days of PBS IP.
Three additional mice inoculated with PANC-1 cells received the RIPlacZ gene and were sacrificed thirty-six hours later.
Additional injected mice with tumors (n=3) received RIPlacZ and their tissues were fixed and stained with X-gal. Study endpoints consisted of monitoring tumor size and the presence of blue cells after X-gal staining.

NIT-1 cell tumors = test: Treatment of β-cell adenomas (insulinomas) in vivo, ICR/scid mice injected IP with NIT-1 cells; conditions: ICR/scid mice with NIT-1 cells; genes via liposomes IP day 31, GCV 40 mg/kg IP seven days
Experimental: To estimate tumor growth blood glucose was measured from the tail vein using a glucometer every other day.
Twenty-seven female ICR/scid mice, age 6-10 weeks old underwent intraperitoneal injections of 5×10^6 NIT-1 cells and nine female ICR/scid mice, age 6-10 weeks old underwent intraperitoneal injections of PBS. At day 31, the mice were randomized to receive either the RIP-tk gene, the RIPlacZ gene, or nothing. The RIP-lac-Z construct served both as a control and to localize gene expression. The genes were delivered via liposomes IP (liposomes provided by Dr. Nancy Smyth-Templeton Center for Gene Therapy and Department of Cell Biology, Baylor College of Medicine) and mixed as described (Smyth-Templeton N, et al., 15 Nature Biotechnology 647-652 (1997)). Six mice were randomized to receive the RIP-tk gene followed by seven days of GCV (40 mg/kg IP). Six mice were randomized to receive the RIP-lacZ gene followed by seven days of GVC (40 mg/kg IP). Six mice were randomized to receive PBS followed by seven days of GCV (40 mg/kg IP). Six mice that were inoculated with NIT-1 cells were randomized to receive seven days of PBS. […]
In another murine hypoglycemic tumor model, 5×10^6 NIT-1 cells (or PBS) were injected intraperitoneally (IP) into ICR/scid mice (n=12 per group). […] Blood glucose values, animal survival, and blue cells after X-gal staining were recorded.

SMILES: Nc1nc(O)c2ncn(COC(CO)CO)c2n1 [GCV, Ganciclovir]
- GCV toxicity dose response (in words) (F9 cells): resembles that of other published cell lines
- maximum dose of GCV one can use to treat cells in culture (NIT-1 cells): 0.20 µg/mL
- GCV dosage significantly decreasing cell OD 490 (A549 cells): greater than 50 μg/ml
- maximum dose of GCV one can use to treat cells in culture (CAPAN-1 cells): 15 µg/mL
- GCV dosage significantly decreasing cell OD 490 (CAPAN-1 cells; five days): greater than 20 μg/ml
- GCV dosage significantly decreasing cell OD 490 (MIA-1 cells): greater than 20 μg/ml
- maximum dose of GCV one can use to treat cells in culture (PANC-1 cells): 20 µg/mL
- GCV dosage significantly decreasing cell OD 490 (PANC-1 cells; five days, n=8): greater than 50 μg/ml
- tumor burden / tumor size (in words) (PANC-1 tumors): developed large peri-pancreatic intraperitoneal tumors
- blood glucose levels (NIT-1 cell tumors): rapid decline in blood glucose levels
